We go through 36 molecules from patent US20240166641A1, “HETEROCYCLES AND USES THEREOF” (Kumquat Biosciences Inc., priority 2021, published 2024).

Molecules are shown by their SMILES.

The target of test [1] is T1, PTP1B (Homo sapiens, UniProt P18031).
T1 sequence (P18031 1-435): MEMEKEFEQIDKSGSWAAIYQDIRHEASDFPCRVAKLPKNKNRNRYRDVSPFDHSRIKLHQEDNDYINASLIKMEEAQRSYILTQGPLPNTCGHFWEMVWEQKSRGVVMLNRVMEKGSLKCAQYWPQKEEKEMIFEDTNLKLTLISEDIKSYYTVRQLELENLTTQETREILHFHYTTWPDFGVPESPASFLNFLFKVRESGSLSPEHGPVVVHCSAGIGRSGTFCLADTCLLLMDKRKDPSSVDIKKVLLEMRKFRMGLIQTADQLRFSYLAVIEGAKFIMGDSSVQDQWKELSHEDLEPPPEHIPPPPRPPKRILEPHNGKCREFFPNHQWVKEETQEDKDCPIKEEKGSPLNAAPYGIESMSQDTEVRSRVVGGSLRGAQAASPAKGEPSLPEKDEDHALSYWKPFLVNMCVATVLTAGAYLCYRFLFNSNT
Put plainly: Phosphatase activity assay (Bio-Biochem-DiFMUP), PTP1B. It is filed as biochemical. The settings on record: DiFMUP substrate, room temperature. An excerpt:
(§1) The selectivity and potency of a small molecule PTPN2 inhibitor as provided herein (e.g., a derivative of Formula I, II, III, IV; or sub-formulae thereof) against one or more protein tyrosine phosphatase (PTP) enzymes, and specifically against PTPN2, can be assessed in various ways. The one or more PTP enzymes comprise Mycobacterium protein tyrosine phosphatase A (mPTPA), Mycobacterium protein tyrosine phosphatase B (mPTPB), PTPN1 (i.e., PTP1B), PTPN2 (i.e., TC-PTP), SHP-1, SHP-2, FAP-1, Meg2, HePTP, Laforin, VHX, VHR, LMWPTP, Cdcl4A, LAR, CD45, PTPRG, a fragment thereof, a variant thereof, and a combination thereof. Selectivity and potency of a small molecule PTPN2 inhibitor is evaluated using a PTP activity inhibition assay. The assay is performed using a buffer comprising 50 millimolar (mM) Bis-Tris (pH=6.3), 2 mM EDTA, and 5 mM N,N′-dimethyl-N,N′-bis(mercaptoacetyl)hydrazine (DMH). The assay is performed using a phosphated substrate, e.g., 10 mM fluorescein diphosphate (FDP) that is stored at −20° C. Alternatively or in addition to, the assay is performed using 10 mM DiFMUP as a phosphated substrate. Each PTP enzyme is diluted in an enzyme dilution buffer comprising 50 mM Bis-Tris (pH=6.3), 2 mM EDTA, 5 mM DMH, 20% (vol./vol.) glycerol, and 0.01% (vol./vol.) Triton X-100.
(§2) The assay is carried out at room temperature in 96 well plates. A reaction mixture of 170 microliter (μL) of the assay buffer comprising 10 μM FDP or DiFMIUP is added to each well. A 10 μL volume of (i) a compound disclosed herein (e.g., PTPN2 inhibitor) dissolved in DMSO at one of 10 concentrations from a serial dilution or (ii) DMSO alone for control is added to each well. The reaction is initiated by adding 20 μL of a PTP enzyme (e.g., PTPN2) that is diluted in the enzyme dilution buffer. The phosphatase activity of the PTP enzyme is assessed by monitoring appearance of a fluorescent product (e.g., fluorescein monophosphate (FMP) from FDP, or 6,8-difluoro-7-hydroxyl-4-coumarin (DiFMU) from DiFMUP) continuously for about 15 to 30 minutes, using the SpectraMax® Gemini™ XPS Microplate Spectrofluorometer (Molecular Devices®) with excitation of 440 nm and emission at 530 nm (cutoff filter at 525 nm) for FMP and excitation at 360 nm and emission at 450 nm (cutoff filter at 435 nm) for DiFMU. The rate (e.g., the initial rate) of FMP or DiFMU formation is plotted against the concentration of the small molecule PTPN2 inhibitor, and the data is fitted (e.g., using a 4-parameter equation) to determine the inflection point of the fit as the IC50 of the small molecule PTPN2 inhibitor for a specific enzyme. Table 6 summarizes the IC50 values of compounds disclosed herein against PTPN2 and PTPN1.

Test [2] concerns the target T2, PTPN2 (Homo sapiens, UniProt P17706).
T2 sequence (P17706 1-415): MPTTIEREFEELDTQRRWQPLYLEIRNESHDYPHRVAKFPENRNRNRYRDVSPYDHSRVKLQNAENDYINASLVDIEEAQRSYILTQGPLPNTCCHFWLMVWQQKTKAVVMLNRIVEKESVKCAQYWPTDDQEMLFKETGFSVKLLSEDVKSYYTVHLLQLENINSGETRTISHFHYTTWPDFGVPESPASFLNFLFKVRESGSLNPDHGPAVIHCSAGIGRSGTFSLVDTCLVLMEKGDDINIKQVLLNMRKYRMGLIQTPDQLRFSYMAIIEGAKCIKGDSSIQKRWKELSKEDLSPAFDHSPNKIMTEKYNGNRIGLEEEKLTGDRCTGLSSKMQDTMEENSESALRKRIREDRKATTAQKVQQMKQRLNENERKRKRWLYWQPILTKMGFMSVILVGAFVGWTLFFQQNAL
The test is described as follows: Phosphatase activity assay (Bio-Biochem-DiFMUP), PTPN2. Conditions: DiFMUP substrate, room temperature. It is filed as biochemical.
Excerpt: as §1, §2

Consider `CC(C)CCn1ccc2cc(O)c(N3CC(=O)NS3(=O)=O)cc2c1=O` [Compound 199], for which the IC50 in test [1] and in test [2] was over 10000 nM each time.

In the case of `COC(=O)c1cc2cc(N3CC(=O)NS3(=O)=O)c(OC)cc2s1` [Compound 102, methyl 5-(1,1-dioxido-4-oxo-1,2,5-thiadiazolidin-2-yl)-6-methoxybenzo[b]thiophene-2-carboxylate], the IC50 in test [1] and in test [2] was over 10000 nM in each case.

Consider `CC(C)CCNc1ccc2cc(O)c(C3CC(=O)NS3(=O)=O)cc2n1` (stereo not drawn) [Compound 109], for which the IC50 – broadly, the concentration at which inhibition is half-maximal – was 1000 to 10000 nM in test [1] and over 10000 nM in test [2].

With `Cn1c(=O)c(NCCC2CCC(F)(F)CC2)cc2cc(N3CC(=O)NS3(=O)=O)c(O)cc21` [Compound 201], the IC50 in test [1] and in test [2] was at most 1000 nM throughout.

In the case of `O=C1CN(c2cc3nc(OCCN4CCOCC4)ccc3cc2O)S(=O)(=O)N1` [Compound 131], the IC50 in test [1] and in test [2] was over 10000 nM in each case.

For the molecule `Cn1c(=O)c(NCCC#N)cc2cc(N3CC(=O)NS3(=O)=O)c(O)cc21` [Compound 164], the IC50 in test [1] and in test [2] was at most 1000 nM each time.

On to `CC(C)CC#Cc1cc2cc(N3CC(=O)NS3(=O)=O)c(O)cc2n(C)c1=O` [Compound 181], for which the IC50 in test [1] and in test [2] was at most 1000 nM in each case.

In the case of `Cn1c(=O)c(NCc2ccccc2)cc2cc(N3CC(=O)NS3(=O)=O)c(O)cc21` [Compound 177], the IC50 in test [1] and in test [2] was at most 1000 nM each time.

For the molecule `Cn1c(=O)c(N2CCCC2)cc2cc(N3CC(=O)NS3(=O)=O)c(O)cc21` [Compound 134], the figures for the IC50 in test [1] and in test [2] were at most 1000 nM and 1000 to 10000 nM, respectively.

`Cn1c(=O)c(O)cc2c(F)c(N3CC(=O)NS3(=O)=O)c(O)cc21` [Compound 184]: the IC50 was at most 1000 nM in test [1] and 1000 to 10000 nM in test [2].

Turning to `CC(C)CCCc1cc2cc(N3CC(=O)NS3(=O)=O)c(O)cc2n(C)c1=O` [Compound 152], the IC50 in test [1] and in test [2] was at most 1000 nM each time.

As to `CN1CCc2cc(O)c(N3CC(=O)NS3(=O)=O)cc2C1=O` [Compound 104], the IC50 in test [1] and in test [2] was over 10000 nM in each case.

For `CC(C)CCNc1cnc2cc(O)c(N3CC(=O)NS3(=O)=O)cc2c1` [Compound 142, 5-(7-hydroxy-3-(isopentylamino)quinolin-6-yl)-1,2,5-thiadiazolidin-3-one 1,1-dioxide], the IC50 in test [1] and in test [2] was at most 1000 nM each time.

With `Cn1c(=O)c(NCC2(C#N)CC2)cc2cc(N3CC(=O)NS3(=O)=O)c(O)cc21` [Compound 202], the IC50 in test [1] was at most 1000 nM; in test [2], 1000 to 10000 nM.

In the case of `C[C@H](Nc1cc2cc(N3CC(=O)NS3(=O)=O)c(O)cc2n(C)c1=O)c1ccccc1` [Compound 194], the results for the IC50 in test [1] and in test [2] were at most 1000 nM and 1000 to 10000 nM, respectively.

Regarding `O=C1CN(c2cc3nc(OCCc4ccc(F)cc4)ccc3cc2O)S(=O)(=O)N1` [Compound 189], the IC50 in test [1] and in test [2] was at most 1000 nM throughout.

As for `Cn1c(=O)c(NCCOC2CCCC2)cc2cc(N3CC(=O)NS3(=O)=O)c(O)cc21` [Compound 140], the IC50 in test [1] is at most 1000 nM; in test [2], 1000 to 10000 nM.

Turning to `CC(C)CCN1Cc2cc(C3=CC(=O)NS3(=O)=O)c(O)cc2N(C)C1=O` [Compound 108, 5-(7-hydroxy-3-isopentyl-1-methyl-2-oxo-1,2,3,4-tetrahydroquinazolin-6-yl)isothiazol-3(2H)-one 1,1-dioxide], the IC50 in test [1] and in test [2] was over 10000 nM in each case.

In the case of `Cn1c(=O)c(NCC(C)(F)F)cc2cc(N3CC(=O)NS3(=O)=O)c(O)cc21` [Compound 173], the IC50 in test [1] and in test [2] was at most 1000 nM in each case.

Regarding `O=C1CN(c2c(O)cc3sc(C(=O)NCCc4ccccc4)cc3c2F)S(=O)(=O)N1` [Compound 198], the IC50 in test [1] and in test [2] was at most 1000 nM in each case.

Take `O=C1CN(c2cc3nc(C4CCOC4)ccc3cc2O)S(=O)(=O)N1` (stereo not drawn) [Compound 147]: the IC50 in test [1] is at most 1000 nM; in test [2], 1000 to 10000 nM.

Take `CC(C)CCN1Cc2cc(C3CC(=O)NS3(=O)=O)c(O)cc2N(C)C1=O` (stereo not drawn) [Compound 111, 5-(7-hydroxy-3-isopentyl-1-methyl-2-oxo-1,2,3,4-tetrahydroquinazolin-6-yl)isothiazolidin-3-one 1,1-dioxide]: the IC50 in test [1] and in test [2] was over 10000 nM each time.

Take `CC(C)CCNc1ccc2cc(O)c(N3CC(=O)NS3(=O)=O)cc2n1` [Compound 187]: the 50% inhibitory concentration (IC50) in test [1] and in test [2] was over 10000 nM in each case.

Turning to `CC(C)CCN1Cc2cc(C3CC(=O)NS3(=O)=O)c(O)cc2CC1=O` (stereo not drawn) [Compound 112], the IC50 in test [1] and in test [2] was over 10000 nM each time.

Take `COc1ccc2cc(O)c(N3CC(=O)NS3(=O)=O)cc2n1` [Compound 124]: the IC50 in test [1] and in test [2] was at most 1000 nM each time.

As to `O=C1CN(c2cc3nc(NCCc4ccccc4)ccc3cc2O)S(=O)(=O)N1` [Compound 118], the IC50 in test [1] and in test [2] was at most 1000 nM each time.

As for `CCN1CCC(Nc2cc3cc(N4CC(=O)NS4(=O)=O)c(O)cc3n(C)c2=O)CC1` [Compound 166], the IC50 in test [1] and in test [2] was 1000 to 10000 nM throughout.

For `CC(C)CCN1Cc2cc(N3CC(=O)NS3(=O)=O)c(O)cc2N(C)C1=O` [Compound 116], the values for the IC50 in test [1] and in test [2] were at most 1000 nM and 1000 to 10000 nM, respectively.

Regarding `COc1cc2c(F)c(N3CC(=O)NS3(=O)=O)c(O)cc2n(C)c1=O` [Compound 146], the IC50 in test [1] and in test [2] was at most 1000 nM in each case.

On to `CC(C)CCNc1cc2cc(N3C(C)C(=O)NS3(=O)=O)c(O)cc2n(C)c1=O` (stereo not drawn) [Compound 203], for which the IC50 in test [1] and in test [2] was 1000 to 10000 nM each time.

In the case of `CC(C)CCN1Cc2cc(C3=CC(=O)NS3(=O)=O)c(O)cc2CC1=O` [Compound 110], the IC50 in test [1] and in test [2] was 1000 to 10000 nM in each case.

Consider `O=C1CN(c2cc3nc(-c4cnn(CC5CC5)c4)ccc3cc2O)S(=O)(=O)N1` [Compound 188], for which the IC50 in test [1] and in test [2] was at most 1000 nM in each case.

As for `Cn1c(=O)c(NC2CCN(S(C)(=O)=O)C2)cc2cc(N3CC(=O)NS3(=O)=O)c(O)cc21` (stereo not drawn) [Compound 191], the IC50 in test [1] and in test [2] was at most 1000 nM each time.

On to `N#Cc1cccc(CCOc2ccc3cc(O)c(N4CC(=O)NS4(=O)=O)cc3n2)c1` [Compound 159], for which the IC50 in test [1] and in test [2] was at most 1000 nM each time.

`Cn1c(=O)c(NCCC2CC2)cc2cc(N3CC(=O)NS3(=O)=O)c(O)cc21` [Compound 168]: the IC50 in test [1] was at most 1000 nM; in test [2], 1000 to 10000 nM.

As to `CCN1CC(Nc2cc3cc(N4CC(=O)NS4(=O)=O)c(O)cc3n(C)c2=O)C1` [Compound 174], the IC50 was at most 1000 nM in test [1] and 1000 to 10000 nM in test [2].
